From PubChem BioAssay (NCI)
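Each compound was tested at five concentrations against cells in 96-well plates for 48 hours. GI50: concentration for 50% inhibition of growth. TGI denotes the concentration required for complete inhibition of growth.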

How the values were obtained:
Assay in all cases: DTP human tumour cell line panel, 48 h
EKVX NSCLC = system: EKVX NSCLC
A498 renal = system: A498 renal
SN12C renal = system: SN12C renal
BT-549 breast = system: BT-549 breast
OVCAR-3 ovarian = system: OVCAR-3 ovarian
OVCAR-4 ovarian = system: OVCAR-4 ovarian
UO-31 renal = system: UO-31 renal
OVCAR-5 ovarian = system: OVCAR-5 ovarian
LOX IMVI melanoma = system: LOX IMVI melanoma
OVCAR-8 ovarian = system: OVCAR-8 ovarian

Structure (SMILES) | GI50 (EKVX NSCLC) [µM] | TGI (EKVX NSCLC) [µM] | GI50 (A498 renal) [µM] | TGI (A498 renal) [µM] | GI50 (SN12C renal) [µM] | TGI (SN12C renal) [µM] | GI50 (BT-549 breast) [µM] | TGI (BT-549 breast) [µM] | GI50 (OVCAR-3 ovarian) [µM] | TGI (OVCAR-3 ovarian) [µM] | GI50 (OVCAR-4 ovarian) [µM] | TGI (OVCAR-4 ovarian) [µM] | GI50 (UO-31 renal) [µM] | TGI (UO-31 renal) [µM] | GI50 (OVCAR-5 ovarian) [µM] | TGI (OVCAR-5 ovarian) [µM] | GI50 (LOX IMVI melanoma) [µM] | TGI (LOX IMVI melanoma) [µM] | GI50 (OVCAR-8 ovarian) [µM] | TGI (OVCAR-8 ovarian) [µM]
CC[C@H](C)[C@H](NC(=O)C12CC(NC(C)=O)(C1)C2)C(=O)N(C)[C@H](C[C@@H](OC(C)=O)c1nc(C(=O)N[C@@H](Cc2ccccc2)C[C@H](C)C(=O)OC)cs1)C(C)C | 1.09 | > 16.7 | 0.234 | 1.58 | 0.937 | > 16.7 | 0.0824 | 3.41 | 0.0494 | 0.569 | 0.885 | > 16.7 | > 8.2 | > 16.7 | > 3.89 | > 16.7 | 0.229 | > 16.7 | 0.519 | > 16.7
CCN1C(=O)N(CC)C2C1NN=c1s/c(=C\c3ccccc3)c(=O)n12 (stereo not given) | 0.388 | > 100 | 0.0238 | 0.147 | 0.511 | > 100 | 0.199 | > 100 | 0.0561 | 0.354 | 0.869 | > 100 | 0.49 | > 100 | 0.498 | > 100 | 0.194 | > 100 | 0.426 | > 100
O=C(Nc1ccc(S(=O)(=O)NC2CCCCCC2)cc1)C(c1ccccc1)S(=O)(=O)c1ccc(F)cc1 (stereo not given) | 0.377 | 2.95 | 0.87 | 2.08 | 0.371 | 1.81 | 0.348 | 1.61 | 0.367 | 2.85 | 0.444 | 4.16 | 0.202 | 3.52 | 0.374 | 3.15 | 0.112 | 0.422 | 0.702 | 4.68
Cc1cc2nc3c4ccccc4n(CCN(C)C)c3nc2cc1C | 2.23 | 7.32 | 1.43 | 2.86 | 1.08 | 10.5 | 2.07 | 6.25 | 1.91 | 7.28 | 2.55 | 8.94 | 0.726 | 14.5 | 2.1 | 6.45 | 0.748 | 3.68 | 1.16 | 12.4
CC(=O)/C=C/C1=C(c2ccsc2)c2ccccc2CC1 | 35.9 | > 100 | 24.7 | 69.7 | 20.9 | 47.2 | 29.5 | 69.3 | 19.4 | 39.7 | > 100 | > 100 | 19.4 | 43.6 | 27.1 | > 100 | 17.9 | 31.9 | 18.2 | 39.3
Cc1c(N2C(=O)/C(=C\c3ccc(N(C)C)cc3)N=C2c2ccccc2)c(=O)n(-c2ccccc2)n1C | 68.4 | > 100 | > 64.3 | > 100 | > 100 | > 100 | 63.7 | > 100 | > 70.6 | > 100 | 39.9 | > 100 | 40.6 | > 100 | > 90.1 | > 100 | > 94.4 | > 100 | 83.9 | > 100
O=P1(O)c2ccccc2CS(=O)(=O)Cc2ccccc21 | – | > 100 | – | > 100 | – | > 100 | – | > 100 | – | > 100 | – | > 100 | – | > 100 | – | > 100 | – | > 100 | – | > 100
